Reference: patent publication EP4703363A1, “SALT FORM AND CRYSTAL FORM OF THIENOPYRIMIDINE COMPOUND, AND PREPARATION METHOD THEREFOR AND USE THEREOF” (Shandong Luye Pharmaceutical Co., Ltd., priority 2023, dated 2024)
Each block holds one compound with its values, some of them ahead of it.

Columns and labels:
[1] = Pituitary tissue distribution in SD rats; type: in vivo; settings: intragastric 12 mg/kg; for Kp at 1 h / Kp at 4 h / Kp at 12 h: male, rat, pituitary/plasma, oral
Procedure: (§1) Rats: SD rats, male, 200-250 g
(§2) Instruments: water purification instrument, Millipore; electronic balance, METTLER TOLEDO; highspeed benchtop centrifuge, Thermo; water bath thermostatic oscillator, Shanghai Yiheng Technical Co., Ltd.; vortex oscillator, Thermo; LC-MS/MS, AB SCIEX.
(§3) Method: Solutions of all compounds were prepared using DMSO and 20% solutol. In the pharmacokinetic experiment, the administration dose for the intravenous group (i.v) was 1 mg/kg, and the administration dose for the intragastric group (i.g) was 12 mg/kg; each group contained 3 rats. Blood was collected from the orbit of the rats before administration (0 h) and at set time points after administration. In the tissue distribution experimental group, the rats were intragastrically dosed at 12 mg/kg. […] The […] was placed in a heparinized EP tube and centrifuged at 13,500 rpm for 10 min to isolate the plasma. The pituitary was homogenized with water in a certain ratio. The plasma and pituitary homogenates were pre-treated and then analyzed by LC-MS/MS to determine the concentrations of the test substances in the plasma and the pituitary. The plasma drug concentration data were processed in a non-compartmental model using WinNonlin™ Version 6.3 (Pharsight, Mountain View, CA) pharmacokinetic software. […] Table 16-1. Pharmacokinetic parameters in SD rats after intravenous administration

[2] = In vivo pharmacokinetics in SD rats; settings: for F: absolute bioavailability; for AUC(0-t) / C0 / MRT last / Cmax / Tmax / half-life: male, rat, plasma
Procedure: as §1, §2, §3

[3] = biological target: T1, human GnRHR (Homo sapiens, UniProt P30968); assay: In vitro antagonistic activity screening (FLIPR fluorescence, Leuprolide acetate stimulation); type: cell-based; settings: HEK293 cells stably expressing human GnRHR
T1 sequence (P30968 1-328): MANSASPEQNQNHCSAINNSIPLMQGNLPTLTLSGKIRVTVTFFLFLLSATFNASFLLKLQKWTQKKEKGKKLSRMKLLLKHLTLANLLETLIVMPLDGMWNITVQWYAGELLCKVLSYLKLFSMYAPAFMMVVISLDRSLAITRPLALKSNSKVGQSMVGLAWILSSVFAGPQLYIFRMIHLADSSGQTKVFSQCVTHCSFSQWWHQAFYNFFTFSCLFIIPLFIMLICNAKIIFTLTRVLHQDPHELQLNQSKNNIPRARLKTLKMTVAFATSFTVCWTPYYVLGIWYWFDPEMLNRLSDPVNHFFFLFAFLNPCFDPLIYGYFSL
Procedure: Cell: HEK293 cells stably expressing human GnRHR (WuXi AppTec (Shanghai) Co., Ltd.) Equipment: 384-well plate, Greiner; Vi-cell XR Cell Viability Analyzer, Beckman Coulter; incubator, Thermo.
Method: HEK293 cells stably expressing human GnRHR were seeded into a 384-well plate at a density of 20,000 cells/well. Fluo-4 DirectTM No-wash Loading Buffer (Invitrogen) was added to each well the next day, and then the plate was put back into an incubator, incubated at 37 °C for 50 min, and then incubated at room temperature for 10 min. […] Fluorescence was measured using a FLIPR Tetra high-throughput real-time fluorescence assay and analysis system. Then 10 µL of Leuprolide acetate was added, and fluorescence was measured. The IC50 and IC90 of the compound were calculated using Prism. Table 12. The in vitro antagonistic activity of the compound of formula I against human GnRHR

[4] = Caco-2 monolayer two-way permeability and efflux; type: in vitro ADME; settings: human
Procedure: Instruments: water purification instrument, ELGA LabWate; biosafety cabinet, NUAIRE; thermostatic CO2 incubator, Thermo; microplate reader, PerkinElmer; LC-MS/MS, AB SCIEX.
Method: A Caco-2 monolayer cell model was used to determine the two-way permeability of the test substance and evaluate whether the test substance was transported via efflux by a transporter. In the experiment, Caco-2 cells were seeded into a 96-well cell culture plate and cultured for 28 consecutive days before a transport assay. The test substance was administered on two sides. After 120 min of incubation, samples of apical end A, basal end B, and the cell lysate were collected, and the content of the test substance in the samples was quantitatively determined using a liquid chromatography-tandem mass spectrometry (LC/MS/MS) method. The apparent permeability coefficients (Papp) in the direction from the apical end to the basal end (A-B) and in the direction from the basal end to the apical end (B-A) and the efflux ratio were calculated based on the concentration of the test substance. Table 15. The permeability of the compound of formula I in Caco-2 cells

[5] = biological target: T1, human GnRHR; assay: In vitro binding screening ([125I]-[D-Trp6]-LH-RH displacement, Chem-1 cell membrane); parameters: host or cells: Chem-1 cells (membrane preparation)
Procedure: [D-Trp6]-LH-RH, PerkinElmer; [D-Trp6]-LH-RH, Abcam.
Equipment: MicroBeta2 LumiJET system, PerkinElmer.
1 µM [D-Trp6]-LH-RH was used in the non-specific binding assay. The cell membrane was collected by filtration under vacuum and washed before liquid scintillation. The binding IC50 and IC90 of the compound were calculated using Prism. Table 13. The in vitro binding activity of the compound of the present disclosure to human GnRHR

[6] = biological target: T2, human hERG potassium channel (Homo sapiens, UniProt Q12809); assay: hERG test (QPatch automated patch clamp, CHO cells); type: cell-based; settings: CHO cells stably expressing human hERG potassium channel
T2 construct: host or cells: CHO
Procedure: Cell: CHO cells stably expressing a human hERG potassium channel (WuXi AppTec (Shanghai) Co., Ltd.)
Reagents: physiological solution (PH = 7.4): 140 mM NaCl, 4 mM KCl, 2 mM CaCl2, 1 mM MgCl2, 5 mM glucose, 10 mM HEPES, osmolarity: about 298 mOsm; external solution (PH = 7.4): 80 mM NaCl, 4 mM KCl, 2 mM CaCl2, 1 mM MgCl2, 5 mM glucose, 60 mM NMDG, 10 mM HEPES, osmolarity: about 289 mOsm; and internal solution (PH = 7.4): 10 mM NaCl, 10 mM KCl, 110 mM KF, 10 mM HEPES, EGTA: […], osmolarity: about 280 mOsm.
Equipment: QPatch high-throughput automated patch clamp system, Sophion.
Method: CHO cells stably expressing a human hERG potassium channel were digested with TrypLE and resuspended in the physiological solution for later use. The single-cell high-impedance sealing and whole-cell mode formation processes were automatically completed by Qpatch. The cells were clamped at a voltage of -80 mV, then a voltage of -50 mV was applied for 80 ms to subtract (current) leakage, and a voltage of +20 mV was applied for 4800 ms to open the hERG channel. The voltage was then reduced to -50 mV and maintained for 5000 ms. This process was used for data collection and analysis. Finally, the voltage was returned to the clamping voltage (-80 mV, 1000 ms). This process was repeated every 20,000 ms. […]

[7] = intragastric administration group

T2 sequence (Q12809 whole entry): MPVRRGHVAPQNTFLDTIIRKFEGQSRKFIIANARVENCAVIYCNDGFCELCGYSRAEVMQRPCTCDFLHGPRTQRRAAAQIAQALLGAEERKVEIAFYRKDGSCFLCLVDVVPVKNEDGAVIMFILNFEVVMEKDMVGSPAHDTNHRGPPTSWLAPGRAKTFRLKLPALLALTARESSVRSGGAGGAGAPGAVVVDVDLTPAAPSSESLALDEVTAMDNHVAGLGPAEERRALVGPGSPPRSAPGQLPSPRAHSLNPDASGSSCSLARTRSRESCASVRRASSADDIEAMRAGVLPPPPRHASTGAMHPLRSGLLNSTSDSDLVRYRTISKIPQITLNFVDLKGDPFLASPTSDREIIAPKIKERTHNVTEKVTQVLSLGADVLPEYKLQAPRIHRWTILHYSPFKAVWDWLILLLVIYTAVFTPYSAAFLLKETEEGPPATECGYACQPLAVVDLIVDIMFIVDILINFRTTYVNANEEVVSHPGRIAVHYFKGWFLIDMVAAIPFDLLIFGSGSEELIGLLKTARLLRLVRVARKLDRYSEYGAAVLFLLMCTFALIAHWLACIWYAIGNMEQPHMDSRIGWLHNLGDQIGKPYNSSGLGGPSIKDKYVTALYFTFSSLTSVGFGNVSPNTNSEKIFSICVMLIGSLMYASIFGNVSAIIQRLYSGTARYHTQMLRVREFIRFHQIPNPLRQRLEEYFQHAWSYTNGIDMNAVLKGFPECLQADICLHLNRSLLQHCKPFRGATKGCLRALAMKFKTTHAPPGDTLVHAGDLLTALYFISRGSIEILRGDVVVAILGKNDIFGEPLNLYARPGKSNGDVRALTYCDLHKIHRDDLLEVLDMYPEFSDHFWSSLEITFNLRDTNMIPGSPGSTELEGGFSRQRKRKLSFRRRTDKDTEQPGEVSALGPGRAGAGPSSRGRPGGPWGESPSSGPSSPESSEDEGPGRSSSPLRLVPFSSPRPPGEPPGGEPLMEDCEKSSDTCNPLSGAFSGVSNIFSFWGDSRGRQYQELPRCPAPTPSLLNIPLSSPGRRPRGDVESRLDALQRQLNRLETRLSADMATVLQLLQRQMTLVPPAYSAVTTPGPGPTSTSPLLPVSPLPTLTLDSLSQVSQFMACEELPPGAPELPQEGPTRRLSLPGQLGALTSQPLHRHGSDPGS

Kp at 1 h ([1]; 1 h): 42.4
Kp at 4 h ([1]; 4 h): 76.3
Kp at 12 h ([1]; 12 h): 161
T1/2 ([2]; i.g 12 mg/kg): 3.88 ± 0.57 h
F ([2]; i.g 12 mg/kg): 5.74%
AUC(0-t) ([2]; intravenous, i.v 1 mg/kg): 212 ± 61 ng·h/mL
C0 ([2]; intravenous, i.v 1 mg/kg): 339 ± 36 ng/mL
MRT last ([2]; intravenous, i.v 1 mg/kg): 2.01 ± 0.92 h
AUC(0-t) ([2]; oral, i.g 12 mg/kg): 146 ± 37 ng·h/mL
Cmax ([2]; oral, i.g 12 mg/kg): 21.6 ± 8.3 ng/mL
MRT last ([2]; oral, i.g 12 mg/kg): 5.68 ± 0.17 h
Tmax ([2]; oral, i.g 12 mg/kg): 0.33 ± 0.14 h
Compound: CONC(=O)Nc1ccc(-c2sc3c(c2CN(C)C)c(=O)n(-c2ccc(OC)nn2)c(=O)n3Cc2c(F)cccc2F)cc1 [Relugolix, reference compound]

Compound: CCNC(=O)Nc1ccc(-c2sc3c(c2CN(C)C)c(=O)n(-c2ccc(OC)nn2)c(=O)n3Cc2c(F)cccc2F)cn1 [Formula I]
IC50 ([3]; read-out: Functional IC50): 1.01 nM
IC90 ([3]; read-out: Functional IC90): 7.55 nM
efflux ratio at 120 min ([4]; Caco-2): 294
Papp A→B at 120 min ([4]; Caco-2, 120 min incubation, A to B): 0.0142 ×10⁻⁶ cm/s
Papp B→A at 120 min ([4]; Caco-2, 120 min incubation, B to A): 4.19 ×10⁻⁶ cm/s
IC50 [5]: 0.64 nM
IC90 [5]: 2.67 nM
IC50 [6]: 25800 nM
Pituitary ([1]; 1 h): 2250±474
Plasma ([1]; 1 h): 39.5±14.0
concentration in the pituitary relative to Relugolix ([1]; 1 h): 2.38 times
Pituitary ([1]; 4 h): 1841±636
Plasma ([1]; 4 h): 22.8±2.5
concentration in the pituitary relative to Relugolix ([1]; 4 h): 1.48 times
Pituitary ([1]; 12 h): 1254±494
Plasma ([1]; 12 h): 9.70±3.10
concentration in the pituitary relative to Relugolix ([1]; 12 h): 2.46 times
Kp at 1 h ([1]; 1 h): 56.9
Kp at 4 h ([1]; 4 h): 80.8
Kp at 12 h ([1]; 12 h): 129
F ([2]; i.g 12 mg/kg): 19.9%
AUClast relative to Relugolix [2, 7]: 2.45 times
Cmax relative to Relugolix [2, 7]: 3.63 times
AUC(0-t) ([2]; intravenous, i.v 1 mg/kg): 150 ± 12 ng·h/mL
C0 ([2]; intravenous, i.v 1 mg/kg): 68.8 ± 21.7 ng/mL
MRT last ([2]; intravenous, i.v 1 mg/kg): 5.41 ± 0.47 h
half-life ([2]; intravenous, i.v 1 mg/kg): 6.39 ± 1.08 h
AUC(0-t) ([2]; oral, i.g 12 mg/kg): 357 ± 85 ng·h/mL
Cmax ([2]; oral, i.g 12 mg/kg): 78.5 ± 36.4 ng/mL
MRT last ([2]; oral, i.g 12 mg/kg): 6.13 ± 1.1 h
Tmax ([2]; oral, i.g 12 mg/kg): 0.38 ± 0.14 h
half-life ([2]; oral, i.g 12 mg/kg): 4.31 ± 1.81 h
